Source: US6011070A, “Slow-onset, long-lasting dopamine reuptake blockers” (priority 1997, dated 2000)
Like-named read-outs stand apart in the source and are kept apart here.

Columns and labels:
[1] = tested on: monkeys; experiment: Previous evaluation, Task I: Drug Discrimination; assay type: in vivo
Excerpt: It is of interest to compare the results of the present study with the results of our previous evaluation of Compound 1 in Task I: Drug Discrimination. […] Higher doses of Compound 1 were not examined in the present study.

[2] = tested on: male Swiss-Webster mice; experiment: Dose response study of induced locomotor stimulation (Digiscan), 1 h session (Example 2); assay type: in vivo, Swiss-Webster mice (Hsd:ND4); conditions: IP, locomotor activity
Method: A dose response study of induced locomotor stimulation was conducted according to the following procedure. The study was conducted using a 16 or 32 Digiscan locomotor activity testing chambers (40.5×40.5×30.5 cm) housed in sets of two, within sound-attenuating chambers. A panel of infrared beams (16 beams) and corresponding photodetectors were located in the horizontal direction along the sides of each activity chamber. A 15-W incandescent light above each chamber provided dim illumination. Fans provided an 80-dB ambient noise level within the chamber. Separate groups of 8 non-habituated male Swiss-Webster mice (Hsd:ND4, aged 2-3 months) were injected via the intraperitoneal (IP) route with either vehicle (deionized water for Compounds 1-4, carboxymethylcellulose for Compound 6 or methyl cellulose for Compound 7)) or test compound (1, 2.5, 5, 10, 25 or 50 mg/kg for Compound 3; 1, 3, 10 and 30 mg/kg for Compounds 1, 2 and 4; 3, 10, 30 or 100 mg/kg for Compound 6; and 1, 3, 10, 30 and 100 mg/kg for Compound 7). Compounds 1-4 were injected immediately prior to locomotor activity testing. […] In all studies, horizontal activity (interruption of photocell beams) was measured for 1 hour within 10 minute periods. Testing was conducted with one mouse per activity chamber.
FIGS. 1, 3, 5 and 7 show average horizontal activity counts/10 minutes as a function of time, immediately following injection of Compound 1, Compound 2, Compound 3 and Compound 4, respectively. FIGS. 13 and 15 show average horizontal activity counts/10 minutes as a function of time, beginning twenty minutes following injection of Compound 6 and Compound 7, respectively. The period 30-60 minutes was selected for analysis of dose-response data. Using TableCurve 2D v2.03 software (Jandel Scientific), the mean average horizontal activity counts/10 minutes for this period were fit to a 3-parameter logistic peak function of log10 dose (with the constant set to 1989, the mean of the vehicle-treated group), and the maximum effect estimated from the resulting curve. […] FIGS. 2, 4, 6, 8, 14 and 16 show average horizontal activity counts/10 minutes over 30 minutes versus the amount administered of Compound 1, Compound 2, Compound 3, Compound 4, Compound 6 and Compound 7, respectively.

[3] = target: T1, dopamine transporter (Rattus norvegicus, UniProt P23977); experiment: Inhibition of binding of dopamine to the dopamine transporter (Example 4)
T1 construct: from tissue
T1 sequence (P23977 whole entry): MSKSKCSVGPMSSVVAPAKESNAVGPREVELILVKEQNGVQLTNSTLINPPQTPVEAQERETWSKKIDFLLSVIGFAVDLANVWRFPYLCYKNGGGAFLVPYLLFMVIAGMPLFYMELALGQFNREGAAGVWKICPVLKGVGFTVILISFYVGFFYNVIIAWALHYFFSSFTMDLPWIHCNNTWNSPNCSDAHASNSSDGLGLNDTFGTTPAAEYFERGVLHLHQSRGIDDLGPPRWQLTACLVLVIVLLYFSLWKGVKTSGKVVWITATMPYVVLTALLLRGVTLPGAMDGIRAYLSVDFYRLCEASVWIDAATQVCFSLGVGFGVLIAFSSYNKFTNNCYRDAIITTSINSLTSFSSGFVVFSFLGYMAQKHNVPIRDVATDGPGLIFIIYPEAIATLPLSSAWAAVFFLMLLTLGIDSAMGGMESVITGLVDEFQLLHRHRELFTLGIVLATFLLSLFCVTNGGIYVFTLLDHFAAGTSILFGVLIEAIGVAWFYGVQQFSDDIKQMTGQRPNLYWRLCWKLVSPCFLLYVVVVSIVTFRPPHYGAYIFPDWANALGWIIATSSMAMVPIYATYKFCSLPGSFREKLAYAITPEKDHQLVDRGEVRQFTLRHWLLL

[4] = tested on: squirrel monkeys; experiment: Locomotor response in primates (Example 5); assay type: in vivo
Method: Compound 1 was tested for its ability to induce a locomotor response in primates according to procedures disclosed in Rosenzweig-Lipson et al., Psychopharmacology 107:186 (1992). Three squirrel monkeys were administered 1.0 mg/kg of Compound 1. […] The results for each monkey are shown below in Table III and is presented as the responses per second on each day of the test. Controls were established by testing each monkey prior to administering Compound 1.

[5] = tested on: squirrel monkeys; experiment: Locomotor response in primates (Example 5); assay type: in vivo; remark: listed apart in the source
[6] = target: T1, dopamine transporter; experiment: Inhibition of dopamine reuptake (Example 4); assay type: biochemical
[7] = tested on: male rhesus monkeys; conditions: for Rates of cocaine self-administration, % of control levels: 30 min pretreatment

## CN(C)C1CC(c2ccc(Cl)c(Cl)c2)c2ccccc21 (stereo not shown) [Compound 1, N,N-dimethyl-3-(3',4'-dichlorophenyl)-1-indanamine]
[1]; Compound 1, 3.2 mg/kg
  Effect on response rates: little effect on response rates in two monkeys, increased response rates in one monkey, and eliminated responding in only one monkey
[1]; Compound 1, 10 mg/kg, one monkey
  Effect on responding, feeding and behavior: eliminated operant responding, decreased free feeding and produced overt behavioral effects including hyperactivity and agitation for several days
[1]; Compound 1, doses up to 1.0 mg/kg
  Effect on response rates: little or no effect on response rates
[2]
  Maximal Effect Relative to Cocaine: 0.82
[2]; Mus musculus, 30-60 min period, read-out: ED50 (dose producing 1/2 maximal stimulant activity)
  ED50: 4.88 mg/kg
[3]
  IC50: 47 nM
[4]; 1.0 mg/kg Compound 1
  Time of peak of locomotor response: three
[4]; 1.0 mg/kg Compound 1, Day 1, Monkey 6 (control 0.93)
  Number of Responses/Second: 1.01 responses/second
[4]; 1.0 mg/kg Compound 1, Day 2, Monkey 4 (control 1.15)
  Number of Responses/Second: 1.72 responses/second
[4]; 1.0 mg/kg Compound 1, Day 4, Monkey 4 (control 1.15)
  Number of Responses/Second: 1.06 responses/second
[4]; 1.0 mg/kg Compound 1, Day 4, Monkey 5 (control 0.51)
  Number of Responses/Second: 1.01 responses/second
[4]; 1.0 mg/kg Compound 1, Day 5, Monkey 4 (control 1.15)
  Number of Responses/Second: 1.05 responses/second
[5]; 1.0 mg/kg Compound 1, 25 minute intervals
  Onset of locomotor response: slow onset locomotor response
[5]; 1.0 mg/kg Compound 1, Day 1, Monkey 4 (control 1.15)
  Number of Responses/Second: 1.63 responses/second
[5]; 1.0 mg/kg Compound 1, Day 1, Monkey 5 (control 0.51)
  Number of Responses/Second: 0.76 responses/second
[5]; 1.0 mg/kg Compound 1, Day 2, Monkey 5 (control 0.51)
  Number of Responses/Second: 1.50 responses/second
[5]; 1.0 mg/kg Compound 1, Day 2, Monkey 6 (control 0.93)
  Number of Responses/Second: 1.31 responses/second
[5]; 1.0 mg/kg Compound 1, Day 3, Monkey 4 (control 1.15)
  Number of Responses/Second: 1.92 responses/second
[5]; 1.0 mg/kg Compound 1, Day 3, Monkey 5 (control 0.51)
  Number of Responses/Second: 1.51 responses/second
[5]; 1.0 mg/kg Compound 1, Day 3, Monkey 6 (control 0.93)
  Number of Responses/Second: 1.40 responses/second
[5]; 1.0 mg/kg Compound 1, Day 4, Monkey 6 (control 0.93)
  Number of Responses/Second: 1.16 responses/second
[5]; 1.0 mg/kg Compound 1, Day 5, Monkey 5 (control 0.51)
  Number of Responses/Second: 0.82 responses/second
[5]; 1.0 mg/kg Compound 1, Day 5, Monkey 6 (control 0.93)
  Number of Responses/Second: 1.14 responses/second
[5]; 1.0 mg/kg Compound 1, Day 6, Monkey 5 (control 0.51)
  Number of Responses/Second: 0.62 responses/second
[5]; 1.0 mg/kg Compound 1, Day 7, Monkey 5 (control 0.51)
  Number of Responses/Second: 0.60 responses/second
[6]; ratio of IC50 values
  Uptake/Binding: 1.19
[6]; read-out: DA Uptake, inhibition of dopamine reuptake IC50
  IC50: 56 nM
[7]; 3.2 mg/kg Compound 1 i.m.
  Rates of cocaine self-administration, % of control levels: approximately 25 % of control levels
[7]; 3.2 mg/kg Compound 1 i.m., all three monkeys
  Rates of cocaine self-administration and food-maintained responding across cocaine unit doses: decreased rates of cocaine self-administration across a wide range of cocaine unit doses while producing relatively minor effects on food-maintained responding
[7]; 3.2 mg/kg Compound 1 i.m., monkey 89B056
  Rates of food-maintained responding: usually unaffected
[7]; 3.2 mg/kg Compound 1 i.m., monkey J3A
  Rates of food-maintained responding: small and inconsistent changes
[7]; 3.2 mg/kg Compound 1 i.m., monkey WH8
  Cocaine unit doses at which self-administration rates were decreased: 0.001-0.01 mg/kg/inj
[7]; 3.2 mg/kg Compound 1 i.m., monkey WH8, first food component
  Rates of food-maintained responding, % of control levels: approximately 30 % of control levels
[7]; 3.2 mg/kg Compound 1 i.m., monkey WH8, second food component
  Rates of food-maintained responding: unaffected
[7]; 3.2 mg/kg Compound 1 i.m., three monkeys
  Range of cocaine doses across which self-administration was decreased: one to two
[7]; 0.1-1.0 mg/kg Compound 1 i.m.
  Rates of cocaine self-administration, % of control levels: 50-75 % of control levels
[7]; Compound 1, 0.1-3.2 mg/kg i.m., prior to or during test session
  Overt behavioral effects: did not produce noticeable overt behavioral effects
